Data from US9751919B2, “Antimicrobial compositions comprising a hyaluronic acid binding peptide and a β-lactam antibiotic” (priority 2012, dated 2017).
Values joined by “and” are separate entries in the source; they are usually repeats but may differ in a detail not shown here. Identical values can stand only once. Marks after values point to notes of the source that are not given here.

Experiments:
E. coli = experiment: Checkerboard assay (FIC index); format: cell-based, Escherichia coli; details: for synergy (in words): with β-lactams, against E. coli
Protocol: (§1) Checkerboard assays were carried out as described by Bonapace et al.
(§2) Diagnostic Microbiology and Infectious Diseases 2002; 44:363-366. In brief, checkerboard assays were performed in 96 well microtitre trays using an 8-by-8 well configuration. […] 96-well custom designed microtitre plates contained 100 ul/well of cation adjusted Mueller-Hinton broth (eg. for Enterobacteriaceae) with or without lysed horse blood (2-5% V/V) [eg. for S. pneumoniae] and were inoculated to achieve a final concentration of approximately 5×10^5 CFU/ml and incubated in ambient air for 24 hours prior to reading. Colony counts were performed periodically to confirm inocula. Quality control was performed every two weeks using a variety of ATCC QC organisms including; S. pneumoniae 49619, S. aureus 29213, E. faecalis 29212, E. coli 25922 and P. aeruginosa 27853. […] All peptides were assessed for synergy with β-lactams and vancomycin. For all antimicrobials as well as the peptides, CLSI criteria were used.
(§3) The fractional inhibitory concentration index (FIC index) was used to interpret synergy, antagonism or additivity/indifference. FIC index=FIC of drug A+FIC of drug B where:
(§4) The FIC of drug A and drug B was calculated as follows, FIC drug A=MIC of drug A in combination/MIC of drug A alone and FIC of drug B=MIC of drug B in combination/MIC of drug B alone. Synergy was defined as FIC index ≦0.5, additivity/indifference defined as a FIC between 0.5 and 4 and antagonism defined as an FIC index >4.
(§5) The checkerboard assays were carried out as described by Eliopoulos and Moellering (Chapter 9) in Antibiotic in Laboratory Medicine, Lorian Ed. 1996 as well as Bonapace et al. Diagnostic Microbiology and Infectious Diseases 2002; 44:363-366 and Bonapace et al. Diagnostic Microbiology and Infectious Diseases 2000; 38:43-50. In brief, checkerboard assays were performed in 96 well microtitre trays using an 8-by-8 well configuration. […] 96-well custom designed microtitre plates contained 100 ul/well of cation adjusted Mueller-Hinton broth (eg. for Enterobacteriaceae) with or without lysed horse blood (2-5% V/V) [eg. for S. pneumoniae] and were inoculated to achieve a final concentration of approximately 5×10^5 CFU/ml and incubated in ambient air for 24 hours prior to reading. Colony counts were performed periodically to confirm inocula. Quality control was performed every two weeks using a variety of ATCC QC organisms including; S. pneumoniae 49619, S. aureus 29213, E. faecalis 29212, E. coli 25922 and P. aeruginosa 27853. For all antimicrobials as well as PEP35, CLSI criteria was used.
(§6) The FIC of drug A and drug B is calculated as follows, FIC drug A=MIC of drug A in combination/MIC of drug A alone and FIC of drug B=MIC of drug B in combination/MIC of drug B alone. Synergy is defined as FIC index ≦0.5, additivity/indifference FIC >0.5-4 and antagonism FIC index >4.
(§7) Antimicrobials used included PEP35, cefazolin, ceftriaxone, vancomycin, linezolid, tigecycline and daptomycin versus Gram-positive cocci and PEP35, gentamicin, levofloxacin, piperacillin/tazobactam, meropenem and colistin (Polymyxin E) versus Gram-negative bacilli. These agents were obtained as laboratory grade powders from their respective manufacturers. Stock solutions were prepared and dilutions made as described by the Clinical Laboratory Standards Institute (2005 CLSI).
(§8) Organisms included Gram-positive cocci (2 strains of each): Methicillin-susceptible Staphylococcus aureus (MSSA), community-associated (CA) and healthcare-associated (HA) methicillin-resistant Staphylococcus aureus (MRSA), vancomycin-intermediate Staphylococcus aureus (VISA), vancomycin-resistant Staphylococcus aureus (VRSA), methicillin-resistant Staphylococcus epidermidis (MRSE), Streptococcus pyogenes, Streptococcus agalactiae, Streptococcus pneumoniae, Enterococcus faecalis, Enterococcus faecium and vancomycin-resistant enterococcus (VRE). […]

VISA [1] = experiment: Checkerboard assay (FIC index); format: cell-based, Staphylococcus aureus;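 also: each agent diluted from 0.03 to 4 times its MIC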
Protocol: as §1, §2, §3, §4, §5, §6, §7, §8

VISA [2] = experiment: MIC (CLSI broth dilution), agent alone; format: cell-based, Staphylococcus aureus; set-up: unit: µg/mL
Protocol: VISA (strains 92, 95 and 96), VRSA (strains 105 and 106) and E. coli (strain 69717) isolates were also tested. One MSSA was used as a control. All MICs were assessed using CLSI guidelines. Also assessed was the activity of cefazolin, ceftriazone, meropenem, and a piperacillin/tazobactam combination antibiotic. Minimum inhibitory concentration (MIC) is the lowest concentration of an antimicrobial that will inhibit the visible growth of a microorganism after incubation.
Antimicrobial Susceptibility Testing: A custom designed panel of antimicrobials was created. The panel included: PEP35, penicillin, piperacillin/tazobactam, cefazolin, ceftriaxone, meropenem, clarithromycin, clindamycin, gentamicin, amikacin, vancomycin, ciprofloxacin, levofloxacin, moxifloxacin, linezolid, trimethoprim/sulfamethoxazole and doxycycline. These agents were obtained as laboratory grade powders from their respective manufacturers. Stock solutions were prepared and dilutions made as described by the Clinical Laboratory Standards Institute (2005 CLSI). Following two subcultures from frozen stock the MICs of the antimicrobial agents for the isolates were determined by the CLSI 2005 approved broth macrodilution method. Briefly, test tubes containing doubling antibiotic dilutions (2 ml per tube) of cation adjusted Mueller-Hinton broth (eg. for Enterobacteriaceae) with or without lysed horse blood (2-5% V/V) [eg. for S. pneumoniae] were inoculated to achieve a final concentration of approximately 5×10^5 CFU/ml and incubated in ambient air for 24 hours prior to reading. Colony counts were performed periodically to confirm inocula. Quality control was performed every two weeks using a variety of ATCC QC organisms including; S. aureus 29213, E. faecalis 29212, E. coli 25922 and P. aeruginosa 27853. For all antimicrobials as well as PEP35, CLSI criteria were used.
One MSSA was used as a control. All MICs were assessed using CLSI guidelines.

E. faecalis = experiment: Checkerboard assay (FIC index); format: cell-based, Enterococcus faecalis; details: antibiotic combined with PEP35
Protocol: as §5, §3, §6, §7
Organisms included Gram-positive cocci (2 strains of each): Methicillin-susceptible Staphylococcus aureus (MSSA), community-associated (CA) and healthcare-associated (HA) methicillin-resistant Staphylococcus aureus (MRSA), vancomycin-intermediate Staphylococcus aureus (VISA), vancomycin-resistant Staphylococcus aureus (VRSA), methicillin-resistant Staphylococcus epidermidis (MRSE), Streptococcus pyogenes, Streptococcus agalactiae, Streptococcus pneumoniae, Enterococcus faecalis, Enterococcus faecium and vancomycin-resistant enterococcus (VRE). Gram-negative bacilli tested (2 strains of each) included: E. coli, Pseudomonas aeruginosa, Klebsiella pneumoniae, K. oxytoca, Enterobacter cloacae, P. mirabilis and Stenotrophomonas maltophilia. MIC testing, following two subcultures from frozen stock were determined by the CLSI 2005 approved broth microdilution method.

[3] = antibiotic combined with PEP35, E. coli 70752
[4] = β-lactam combined with HybPEP35-1, E. coli 69716
[5] = β-lactam combined with PEP-52, E. coli 69716
[6] = β-lactam combined with Scrambled PEP35, E. coli 69716
[7] = antibiotic combined with PEP35, VISA 96
[8] = β-lactam combined with HybPEP35-1, VISA 96
[9] = β-lactam combined with PEP-52, VISA 96
[10] = β-lactam combined with Scrambled PEP35, VISA 96
[11] = antibiotic combined with PEP35, VISA 92
[12] = antibiotic combined with PEP35, VISA 95
[13] = antibiotic combined with PEP35, E. coli 69716

Compound	Avg ΣFIC (range) (E. coli; [4])	Avg ΣFIC (range) (E. coli; [5])	Avg ΣFIC (range) (E. coli; [6])	Avg ΣFIC (range) (VISA [1]; [7])	Avg ΣFIC (range) (VISA [1]; [8])	Avg ΣFIC (range) (VISA [1]; [9])	Avg ΣFIC (range) (VISA [1]; [10])	MIC (VISA [2]; VISA 92, in µg/mL)	MIC (VISA [2]; VISA 95, in µg/mL)	MIC (VISA [2]; VISA 96)	Avg ΣFIC (range) (VISA [1]; [11])	Avg ΣFIC (range) (VISA [1]; [12])	MIC (VISA [2]; VISA 92)	Avg ΣFIC (range) (E. faecalis; E. faecalis 70468)	Avg ΣFIC (range) (E. faecalis; E. faecalis 78145)	Avg ΣFIC (range) (E. coli; [13])	MIC (VISA [2]; VISA 96, in µg/mL)	other results
C[C@@H](O)[C@H]1C(=O)N2C(C(=O)O)=C(S[C@@H]3CN[C@H](C(=O)N(C)C)C3)[C@H](C)[C@H]12 [Meropenem]	1.21	>1*	1.21	0.41	0.45	>1*	0.45	16	16	8 and 8/8								Avg ΣFIC (range) (E. coli; [3]): 1.21 (1.03-1.5)
CN[C@H](CC(C)C)C(=O)N[C@H]1C(=O)N[C@@H](CC(N)=O)C(=O)N[C@H]2C(=O)N[C@H]3C(=O)N[C@H](C(=O)N[C@H](C(=O)O)c4cc(O)cc(O)c4-c4cc3ccc4O)[C@H](O)c3ccc(c(Cl)c3)Oc3cc2cc(c3O[C@@H]2O[C@H](CO)[C@@H](O)[C@H](O)[C@H]2O[C@H]2C[C@](C)(N)[C@H](O)[C@H](C)O2)Oc2ccc(cc2Cl)[C@H]1O [Vancomycin]				0.88 (0.53-0.125)						4/4	1.1 (1.0-1.25)	1.1 (1.03-1.25)	4/4	1.1 (1-1.25)	1.19 (1.03-15)			MIC (VISA [2]; VISA 95): 2 and 4
Cc1nnc(SCC2=C(C(=O)O)N3C(=O)[C@@H](NC(=O)Cn4cnnn4)[C@H]3SC2)s1 [Cefazolin]	1.1	>1*	1.1		0.30	>1*	0.30	128	128 and 64	32/32	0.33 (0.18-0.53) and 0.45 (0.18-1.015)	0.49 (0.31-0.62) and 0.37 (0.18-0.56)	128/128	0.94 (0.56-1.25)	0.93 (0.62-1.06)	1.1	64 and 32	MIC (VISA [2]; VISA 95, listed as CEFAZOLIN, in µg/mL): 128
CC(=O)NC[C@H]1CN(c2ccc(N3CCOCC3)c(F)c2)C(=O)O1 [Linezolid, linezolid]				0.77 (0.56-1.06)							0.99 (0.75-1.12)	0.98 (0.62-1.25)		0.99 (0.62-1.25)	0.88 (0.62-1.06)			
KKKKKLQLQLNLIKKKVQVSVVVVRRH (Reordered human peptide sequence) [Scrambled PEP35]								2048	2048								1024	synergy (in words) (E. coli): not synergistic (except at low level with ceftriaxone)
LKQKIKHVVKLKVVVKLRSQLVKRKQN (listed as Mus sp.) [PEP35]										512 and 512/512/512			1024 and 2048/2048/2048					synergy (in words) (E. coli): not synergistic
piperacillin/tazobactam	0.59	>1*	0.59					64	64							0.87 (0.56-1.12) and 0.63 (0.5-1.03)	64	Avg ΣFIC (range) (E. coli; [3]): 0.98 (0.62-1.25) and 0.63 (0.24-1.03); Avg ΣFIC (range) (E. coli; β-lactam combined with HybPEP35-1, E. coli 70752): 0.67; Avg ΣFIC (range) (E. coli; β-lactam combined with PEP-52, E. coli 70752): >1*; Avg ΣFIC (range) (E. coli; β-lactam combined with Scrambled PEP35, E. coli 70752): 0.67
CN(C)c1cc(NC(=O)CNC(C)(C)C)c(O)c2c1C[C@H]1C[C@H]3[C@H](N(C)C)C(O)=C(C(N)=O)C(=O)[C@@]3(O)C(O)=C1C2=O [Tigecycline, tigecycline]				0.91 (0.62-1.12)							0.56 (0.31-1.06)	0.46 (0.37-0.56) and 0.43 (0.31-0.56)		0.82 (0.5-1.06)	0.9 (0.5-1.12)			
CCCCCCCCCC(=O)N[C@@H](Cc1c[nH]c2ccccc12)C(=O)N[C@H](CC(N)=O)C(=O)N[C@@H](CC(=O)O)C(=O)N[C@@H]1C(=O)NCC(=O)N[C@@H](CCCN)C(=O)N[C@@H](CC(=O)O)C(=O)N[C@H](C)C(=O)N[C@@H](CC(=O)O)C(=O)NCC(=O)N[C@H](CO)C(=O)N[C@@H]([C@H](C)CC(=O)O)C(=O)N[C@@H](CC(=O)c2ccccc2N)C(=O)O[C@@H]1C [Daptomycin, daptomycin]				1.21 (1.03-1.5)							1.54 (1.015-2.5)	1.23 (1.06-1.5)		1.5 (1-2.25)	1.39 (1.03-2.25)			
CO/N=C(\C(=O)N[C@@H]1C(=O)N2C(C(=O)O)=C(CSc3nc(=O)c(=O)[nH]n3C)CS[C@H]12)c1csc(N)n1 [Ceftriaxone]	0.41	>1*	0.41		0.26	>1*	0.26	1024	512	256 and 128/128 and 256/256	0.52 (0.28-1.06)	0.28 (0.09-0.56) and 0.37 (0.18-0.56)	1024/1024	1.1 (1-1.25)	0.72 (0.53-1.12)	1.04		MIC (VISA [2]; VISA 95, listed as CEFTRIAXONE, in µg/mL): 1024 and 512
